The values below come from patent US11484032B2, “Compositions for inhibition of insect sensing” (Vanderbilt University, priority 2011, dated 2022).

One experiment concerns the target T1, AgORco (Anopheles gambiae, UniProt Q7QCC7).
T1 construct: expressed in transfected cells
T1 sequence (Q7QCC7 1-478): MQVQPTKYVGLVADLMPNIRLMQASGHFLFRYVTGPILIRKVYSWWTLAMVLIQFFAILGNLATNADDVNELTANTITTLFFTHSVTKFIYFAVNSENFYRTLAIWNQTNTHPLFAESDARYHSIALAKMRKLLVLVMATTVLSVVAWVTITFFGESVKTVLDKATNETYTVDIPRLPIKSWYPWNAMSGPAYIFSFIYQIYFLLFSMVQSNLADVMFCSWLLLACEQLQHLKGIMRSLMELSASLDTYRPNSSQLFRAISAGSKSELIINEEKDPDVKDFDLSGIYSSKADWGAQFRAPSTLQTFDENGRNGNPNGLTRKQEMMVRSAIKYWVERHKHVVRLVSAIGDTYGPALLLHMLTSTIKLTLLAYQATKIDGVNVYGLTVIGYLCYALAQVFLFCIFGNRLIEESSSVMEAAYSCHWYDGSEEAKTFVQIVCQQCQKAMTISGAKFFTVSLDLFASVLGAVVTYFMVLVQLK
Description: Whole-cell patch clamp, HEK293 cells stably expressing AgORco alone. In kind it is cell-based. How it is done: (§1) Currents from OR-expressing HEK293 cells were amplified with an Axopatch 200b Amplifier (Axon Instruments) and digitized through a Digidata 1322A (Axon Instruments). Electrophysiological data was recorded and analyzed using pCLAMP 10 (Axon Instruments). Electrodes were fabricated from quartz tubing (Sutter Instruments) and pulled to 4-6 MiΩ for whole cell recording. Electrodes were filled with internal solution (120 mM KCl, 30 mM D-glucose, 10 mM HEPES, 2 mM MgCl2, 1.1 mM EGTA, and 0.1 CaCl2) (pH 7.35, 280 mOsm). External (bath) solution contained 130 mM NaCl, 34 mM D-glucose, 10 mM HEPES, 1.5 mM CaCl2), 1.3 mM KH2PO4, and 0.5 MgSO4 (pH 7.35, 300 mOsm). Compounds were diluted in external solution and locally perfused to the recording cell using Perfusion Pencil (Automate Scientific) and controlled by a ValveLink 8.2 controller (Automate Scientific). Whole cell recordings were sampled at 10 kHz and filtered at 5 kHz. Outside-out patches were obtained using 10-15MΩ electrodes pulled from standard glass capillaries (World Precision Instruments) and fire-polished with an MF-830 micro forge (Narishige). Single channel recordings were sampled at 20 kHz. Recordings were reduced to 1 kHz and low-pass filtered at 500 Hz for display and analysis using QuB (SUNY at Buffalo).
(§2) To test the hypothesis that VUAA1 directly agonized AgORco, whole-cell patch clamp responses were examined in AgORco+AgOR10 expressing cells as well as HEK293 cells stably expressing AgORco alone. […] The VUAA1-dependent currents in AgORco+AgOR10 cells resembled those resulting from application of benzaldehyde, an orthosteric agonist of AgOR10 (FIG. 3C) (Wang, 2010; Carey, 2010). […] To investigate the specificity of VUAA1 agonism, the inventors transiently transfected HEK cells with the AgORco orthologs of Drosophila melanogaster and Heliothis virescens, DmORco and HvOR2 respectively.

In a further experiment the test system is HvOR2. The experiment can be described thus: Whole-cell patch clamp, HEK cells transiently expressing HvOR2. In kind it is cell-based, Heliothis virescens. The settings on record: HvOR2 transiently transfected HEK cells. The source says:
For transient transfections, ORs were cloned into pCl (Promega) and transfected into Flp-In™ T-REx™293 cell lines (Invitrogen) with Fu GENE6 (Roche). For the creation of stable cell lines, a cell culture expression vector capable of expressing Orco in conjunction with a conventional OR, pcDNA5/FRT/TO (Invitrogen) was modified to create two individual expression cassettes each under the control of a separate CMV/Tet02 promoter and a BGH poly-adenylation signal. Cells (as above) were transfected with the modified pcDNA5 plasmid along with POG44 (a Flp recombinase expression plasmid) to facilitate site-specific recombination. Stable cell lines were selected using Hygromycin B (Invitrogen). Cells were maintained in DMEM (Invitrogen) supplemented with 10% Tetracycline-free FBS (HyClone) and 15 ng/ml Blasticidin. […] Baseline readings were taken for 20 s before automated addition of compound previously diluted in DMSO and assay buffer. […]
Currents from OR-expressing HEK293 cells were amplified with an Axopatch 200b Amplifier (Axon Instruments) and digitized through a Digidata 1322A (Axon Instruments). Electrophysiological data was recorded and analyzed using pCLAMP 10 (Axon Instruments). […]

In experiment [1] the test system is CO2 sensitive CpA neuron (does not express AgORco). Description: Single sensillum recording, capitate peg sensilla, CpA neuron. In kind it is in vivo, Anopheles gambiae. The settings on record: CO2 pulse at completion of assay. Here is the method: Single sensillum recordings were performed on 4-7 day old, non-bloodfed Anopheles gambiae females maintained on 10% sucrose and a 12/12 light dark cycle. Legs, wings and antennae were removed from cold-anesthetized females that were then restrained on double-stick tape with thread. A glass reference electrode filled with Sensillar lymph ringers (SLR)(Xu, 2005) was placed in the eye and the recording electrode filled with DMSO or VUAA1 diluted in SLR was used to puncture sensilla at their base. Responses were recorded and digitized using a Syntech IDAC-4 and analyzed with AutoSpike software (Syntech). New glass recording pipettes were used for every recording. Data was sampled at 12 kHz.
The inventors next performed single unit, extracellular electrophysiological recordings on adult female An. gambiae to determine whether VUAA1 could activate AgORco-expressing odorant receptor neurons (ORNs) in vivo. ORNs, which express AgORco and a conventional OR are enclosed within the hair-like sensilla present on olfactory tissues. […] CpA is clearly distinguished from CpB/C by its large action potential amplitude. The action potential amplitudes of CpB and CpC are much smaller and in some preparations indistinguishable from each other; as a result, the spike activity of CpB and CpC neurons were binned for data analysis. […]

For the next experiment, the target named is T2, AgORco+AgOR10 (Anopheles gambiae, UniProt Q7QCC7).
T2 construct: expressed in transfected cells
T2 sequence (Q7QCC7 1-478): T1 sequence (Q7QCC7 1-478)
Description: Whole-cell patch clamp, HEK293 cells expressing AgORco+AgOR10. In kind it is cell-based. How it is done: as §1, §2

For the molecule `CCc1ccc(NC(=O)CSc2nnc(-c3cccnc3)n2CC)cc1` [VUAA1, 2-((4-ethyl-5-(pyridin-3-yl)-4H-1,2,4-triazol-3-yl)thio)-N-(4-ethylphenyl)acetamide], the whole-cell current response entry on AgORco (AgORco alone cells, holding potential −60 mV) is listed as “concentration-dependent inward currents”; with HvOR2 it was “robust inward currents”; on AgORco+AgOR10 (AgORco+AgOR10 cells, holding potential −60 mV), “concentration-dependent inward currents”. The “reversal potential of agonist-induced current” value is given as “+0.4±1.1 mV” at AgORco (AgORco alone, mean s.e.m.) and −4.8±3.0 mV at AgORco+AgOR10 (AgORco+AgOR10 complexes, mean s.e.m.). Further, the “whole-cell current response at −5.0 log M” value on AgORco (−5.0 log M) is “no response”; at AgORco+AgOR10 (−5.0 log M) it was “inward currents”. For the same molecule, the CpA neuron activity entry in experiment [1] is “unchanged”.
